Here are results for three compounds from patent publication US20120172438A1, “GLYCYRRHETINIC ACID ESTER DERIVATIVE SYNTHESIS METHOD AND DEOXOGLYCYRRHETINIC ACID ESTER COMPOUND” (priority 2009, published 2012).

Structures are written as SMILES. Marks after values point to notes of the source that are not given here.

Experiment [1] has as its system D-Galn induced acute liver injury. The experiment can be described thus: D-Galn induced acute liver injury mouse model. It counts as in vivo, ICR male mice. The note with it: Table 2 experiment, 7 days. As for the experimental part:
1. Comparison of therapeutic effects of ethyl 11-deoxy-18α-glycyrrhetinate and compound glycyrrhizin injection on ICR male mouse models of the D-Galn induced acute liver injury
Methods: 60 ICR male mice were randomly divided into 6 groups of 10 mice in each group: the model group, compound glycyrrhizin injection group (60 mg/kg), compound glycyrrhizin gastric infusion group (240 mg /kg), high dose of ethyl 11-deoxy-18α-glycyrrhetinate group (240 mg/kg), middle dose of ethyl 11-deoxy-18α-glycyrrhetinate group (120 mg/kg), low dose of ethyl 11-deoxy-18α-glycyrrhetinate group (60 mg/kg). […] The mice in model group were administered equal amount of 0.5% CMC-Na by gastric infusion.

In experiment [2] the test system is TAA induced acute liver injury. The experiment can be described thus: TAA induced acute liver injury mouse model. It counts as in vivo, ICR male mice. Set-up: Average grade of hepatocyte necrosis: scale not given here. The following applies: 240 mg/kg IG. As for the experimental part: 50 ICR male mice were randomly divided into 5 groups of 10 mice in each group: the model group, diammonium glycyrrhizinate group (240 mg/kg), high dose of ethyl 11-deoxy-18α-glycyrrhetinate group (240 mg/kg), middle dose of ethyl 11-deoxy-18α-glycyrrhetinate group (120 mg/kg), and low dose of ethyl 11-deoxy-18α-glycyrrhetinate group (60 mg/kg). The mice in model group were administered equal amount of 0.5% CMC-Na by IG.

For experiment [3], the system named is BCG + LPS induced liver injury. The experiment can be described thus: BCG+LPS induced liver injury in mice. It counts as in vivo, Kunming mice. The following applies: 5.85 mg/kg gastric infusion, 7 days.
The test system of experiment [4] is acetaminophen induced liver injury. Nature of the experiment: Acetaminophen induced liver injury in mice. It counts as in vivo. The following applies: 5.85 mg/kg gastric infusion, 10 days. As for the experimental part:
Ethyl 11-deoxy-18α-glycyrrhetinate: provided by traditional Chinese medicine laboratory, R&D center of Jiangsu Chia Tai Tianqing Pharmaceutical Co., Ltd. Bifendate pills: produced by Beijing Union Pharmaceutical factory. Daily dosage of human is 45 mg, used as the positive control medicine. Acetaminophen: produced by Jinzhou biochemical pharmaceutical factory. All medicines were prepared to desired concentrations with physiological saline according to the requirement of experiment. AST, ALT Kit: product of Nanjing Jiancheng bioengineering research institute.
60 mice were randomly divided into 6 groups: the normal control group, Bifendate group (positive medicine group), model control group, various doses of ethyl 11-deoxy-18α-glycyrrhetinate groups (240, 120, 60 mg/kg). After the animals were adaptively fed for 3 days, animals in each group were administered the medicines by gastric infusion for 10 days (one time/day). Animals in the normal control group and model group were administered 0.2 ml/mouse of physiological saline. 6 hours after the last administration, animals in each group, except the animals in normal control group, were intraperitoneally injected 400 mg kg-1 acetaminophen. After 12 hours, blood was taken by orbital bleeding. Activities of alanine aminotransferase (ALT), aspartate aminotransferase (AST) were measured. And T test of groups was performed, see table 7;

Experiment [5] concerns carrageenan-induced rat paw edema. Nature of the experiment: Carrageenan-induced rat paw swelling. The note with it: 10 mg/kg gastric infusion. The experiment is classed as in vivo, male SD rats. As for the experimental part:
Rat paw edema was induced by injecting carrageenan, and we observed the swelling to evaluate the anti-inflammatory effect. Wherein:
• Animals: male SD rats, 150-180 g; • Inflammatory Agent: carrageenan; • Test Medicine: ethyl 11-deoxy-18α-glycyrrhetinate was dissolved in 1% CMC-Na to get the desired concentration; • Positive Control Medicine: indomethacin was dissolved in 1% CMC-Na to get the desired concentration;
50 rats were randomly divided into 5 groups of 10 rats in each group: the model group, positive control group (administering indomethacin 10 mg/kg), various doses of the test medicine groups (30, 60, 120 mg/kg). The animals in each group were administered continuously for 3 days. Before the last administration, the volumes of the left hind feet of the rats were measured by micropipette method. Then the animals were administered the test medicines or CMC-Na by gastric infusion. 1 hour later, freshly prepared carrageenan was injected subcutaneously into left hind feet of the rats according to the dosage of 0.05 ml/paw by using a 0.25 ml syringe and NO. 4 needle. The volume of left hind feet of the rats was measured by the method mentioned above at time points of 1, 3, 4, 5 and 7 hours after administration, each point 2 times, and the average values were calculated. The difference of these values between before and after inflammation was called swelling degree.
Data was presented as x±s. T test of the average of two samples was used to compare the experimental data of each group. P<0.05 or P<0.01 was regarded to be statistically significant.

Regarding `CC1(C)[C@@H](O[C@H]2O[C@H](C(=O)O)[C@@H](O)[C@H](O)[C@H]2O[C@@H]2O[C@H](C(=O)O)[C@@H](O)[C@H](O)[C@H]2O)CC[C@]2(C)[C@H]3C(=O)C=C4[C@@H]5C[C@@](C)(C(=O)O)CC[C@]5(C)CC[C@@]4(C)[C@]3(C)CC[C@@H]12.N.N` [Diammonium glycyrrhizinate, diammonium glycyrrhizinate, reference compound], in experiment [1] (60 mg/kg IP), the ALT worked out at 383 ± 393 U/ml, the “ALT Inhibition %” value is recorded as 80%, the AST is on record as 308 ± 389 U/ml and the “AST Inhibition %” value is 73%. Also, in experiment [1] (240 mg/kg IG), the ALT was determined as 993 ± 479 U/ml, the “ALT Inhibition %” value was determined as 49%, the AST is given as 566 ± 291 U/ml and the “AST Inhibition %” value came out at 50%. Also, in experiment [2], the ALT is listed as 1568 ± 721 U/ml, the “ALT Inhibition %” value is on record as 31%, the AST is recorded as 1039 ± 623 U/ml and the “AST Inhibition %” value amounted to 40%. In addition, the “Average grade of hepatocyte necrosis” value in experiment [2] is listed as 1.3**. Moreover, in experiment [2] (N=10), the “Grade of hepatocyte necrosis 0 (number of mice)” value worked out at 0, the “Grade of hepatocyte necrosis 1 (number of mice)” value came to 7, the “Grade of hepatocyte necrosis 2 (number of mice)” value stood at 3 and the “Grade of hepatocyte necrosis 3 (number of mice)” value was found to be 0. Besides, in experiment [2] (N=10), the “Grade of hepatocyte necrosis 4 (number of mice)” value turned out to be 0.
In the case of `COC(=O)c1cc(OC)c2c(c1-c1c(C(=O)OC)cc(OC)c3c1OCO3)OCO2` [Bifendate, reference compound], in experiment [3], the ALT came out at 110.5 ± 11.9 U/L and the AST amounted to 152.3 ± 41.6 U/L. In experiment [4], the ALT is recorded as 134.6 ± 12.9 U/L and the AST came out at 162.3 ± 31.7 U/L.
As for `COc1ccc2c(c1)c(CC(=O)O)c(C)n2C(=O)c1ccc(Cl)cc1` [Indomethacin, indomethacin, reference compound], the “Swelling degree of the feet after inflammation” value amounted to 0.13 ± 0.05 mL in experiment [5] (1 h); 0.17 ± 0.07 mL in experiment [5] (3 h); 0.24 ± 0.09 mL in experiment [5] (4 h); 0.22 ± 0.06 mL in experiment [5] (5 h); 0.16 ± 0.05 mL in experiment [5] (7 h).
